According to PubChem BioAssay (NCI):
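All cell lines were grown in 96-well plates and treated with compound for 48 hours. Here, GI50 denotes the concentration required for 50% inhibition of growth. TGI is the concentration that stops growth completely.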

Key:
Assay in all cases: inhibition of tumour cell growth, NCI panel, 48 h
MDA-MB-435 = system: MDA-MB-435
M14 melanoma = system: M14 melanoma
UO-31 renal = system: UO-31 renal
A498 renal = system: A498 renal
LOX IMVI melanoma = system: LOX IMVI melanoma
OVCAR-5 ovarian = system: OVCAR-5 ovarian
UACC-62 melanoma = system: UACC-62 melanoma
HCT-15 colon = system: HCT-15 colon
SR leukemia = system: SR leukemia
OVCAR-3 ovarian = system: OVCAR-3 ovarian
SN12C renal = system: SN12C renal
KM12 colon = system: KM12 colon
HCT-116 colon = system: HCT-116 colon
MALME-3M melanoma = system: MALME-3M melanoma
OVCAR-8 ovarian = system: OVCAR-8 ovarian
MDA-MB-231 breast = system: MDA-MB-231 breast
HOP-92 NSCLC = system: HOP-92 NSCLC
MCF7 breast = system: MCF7 breast
DU-145 prostate = system: DU-145 prostate
BT-549 breast = system: BT-549 breast
NCI-H23 lung = system: NCI-H23 lung
HL-60(TB) leukemia = system: HL-60(TB) leukemia
UACC-257 melanoma = system: UACC-257 melanoma
SF-268 CNS = system: SF-268 CNS
SW-620 colon = system: SW-620 colon
CCRF-CEM leukemia = system: CCRF-CEM leukemia
HT29 colon = system: HT29 colon
786-0 renal = system: 786-0 renal
IGROV1 ovarian = system: IGROV1 ovarian
SK-OV-3 ovarian = system: SK-OV-3 ovarian
MOLT-4 leukemia = system: MOLT-4 leukemia
T-47D breast = system: T-47D breast
SNB-19 CNS = system: SNB-19 CNS
SK-MEL-5 melanoma = system: SK-MEL-5 melanoma
RXF 393 renal = system: RXF 393 renal
NCI-H522 lung = system: NCI-H522 lung
HS 578T breast = system: HS 578T breast
K-562 leukemia = system: K-562 leukemia
OVCAR-4 ovarian = system: OVCAR-4 ovarian
A549 NSCLC = system: A549 NSCLC
SNB-75 CNS = system: SNB-75 CNS
NCI/ADR-RES ovarian = system: NCI/ADR-RES ovarian
SK-MEL-28 melanoma = system: SK-MEL-28 melanoma
ACHN renal = system: ACHN renal
PC-3 prostate = system: PC-3 prostate
CAKI-1 renal = system: CAKI-1 renal
SF-539 CNS = system: SF-539 CNS
TK-10 renal = system: TK-10 renal
SK-MEL-2 melanoma = system: SK-MEL-2 melanoma
U251 CNS = system: U251 CNS
NCI-H460 lung = system: NCI-H460 lung
EKVX NSCLC = system: EKVX NSCLC
HOP-62 NSCLC = system: HOP-62 NSCLC
COLO 205 colon = system: COLO 205 colon
SF-295 CNS = system: SF-295 CNS
RPMI-8226 leukemia = system: RPMI-8226 leukemia

## COc1cc2c3c(n(CCCN=[N+]=[N-])c(=O)c2cc1OC)-c1ccc([N+](=O)[O-])cc1C3=O
MDA-MB-435
  GI50: > 100 µM
  TGI: > 100 µM
M14 melanoma
  GI50: > 100 µM
  TGI: > 100 µM
UO-31 renal
  GI50: 20 µM
  TGI: > 100 µM
A498 renal
  GI50: 96.7 µM
  TGI: > 100 µM
LOX IMVI melanoma
  GI50: 61 µM
  TGI: > 100 µM
OVCAR-5 ovarian
  GI50: > 100 µM
  TGI: > 100 µM
UACC-62 melanoma
  GI50: 68.7 µM
  TGI: > 100 µM
HCT-15 colon
  GI50: > 100 µM
  TGI: > 100 µM
SR leukemia
  GI50: 4.38 µM
  TGI: 22.9 µM
OVCAR-3 ovarian
  GI50: > 100 µM
  TGI: > 100 µM
SN12C renal
  GI50: > 100 µM
  TGI: > 100 µM
KM12 colon
  GI50: > 100 µM
  TGI: > 100 µM
HCT-116 colon
  GI50: > 100 µM
  TGI: > 100 µM
MALME-3M melanoma
  GI50: > 100 µM
  TGI: > 100 µM
OVCAR-8 ovarian
  GI50: > 100 µM
  TGI: > 100 µM
MDA-MB-231 breast
  GI50: 20.3 µM
  TGI: > 100 µM
HOP-92 NSCLC
  GI50: 29.8 µM
  TGI: > 100 µM
MCF7 breast
  GI50: 27.9 µM
  TGI: > 100 µM
DU-145 prostate
  GI50: 34.4 µM
  TGI: > 100 µM
BT-549 breast
  GI50: 14.4 µM
  TGI: 98.8 µM
NCI-H23 lung
  GI50: 91.1 µM
  TGI: > 100 µM
HL-60(TB) leukemia
  GI50: > 100 µM
  TGI: > 100 µM
UACC-257 melanoma
  GI50: > 100 µM
  TGI: > 100 µM
SF-268 CNS
  GI50: 33.4 µM
  TGI: > 100 µM
SW-620 colon
  GI50: 55.3 µM
  TGI: > 100 µM
CCRF-CEM leukemia
  GI50: 38.7 µM
  TGI: > 100 µM
HT29 colon
  GI50: > 100 µM
  TGI: > 100 µM
786-0 renal
  GI50: 50.3 µM
  TGI: > 100 µM
IGROV1 ovarian
  GI50: 215 nM
  TGI: 35 µM
SK-OV-3 ovarian
  GI50: > 100 µM
  TGI: > 100 µM
MOLT-4 leukemia
  GI50: 63.3 µM
  TGI: > 100 µM
T-47D breast
  GI50: 50.1 µM
  TGI: > 100 µM
SNB-19 CNS
  GI50: > 100 µM
  TGI: > 100 µM
SK-MEL-5 melanoma
  GI50: > 100 µM
  TGI: > 100 µM
RXF 393 renal
  GI50: > 100 µM
  TGI: > 100 µM
NCI-H522 lung
  GI50: 16.8 µM
  TGI: > 100 µM
HS 578T breast
  GI50: 48 µM
  TGI: > 100 µM
K-562 leukemia
  GI50: > 100 µM
  TGI: > 100 µM
OVCAR-4 ovarian
  GI50: > 100 µM
  TGI: > 100 µM
A549 NSCLC
  GI50: > 100 µM
  TGI: > 100 µM
SNB-75 CNS
  GI50: 20.9 µM
  TGI: 66.9 µM
NCI/ADR-RES ovarian
  GI50: 80 µM
  TGI: > 100 µM
SK-MEL-28 melanoma
  GI50: > 100 µM
  TGI: > 100 µM
ACHN renal
  GI50: > 100 µM
  TGI: > 100 µM
PC-3 prostate
  GI50: > 100 µM
  TGI: > 100 µM
CAKI-1 renal
  GI50: > 100 µM
  TGI: > 100 µM
SF-539 CNS
  GI50: 38.9 µM
  TGI: > 100 µM
TK-10 renal
  GI50: > 100 µM
  TGI: > 100 µM
SK-MEL-2 melanoma
  GI50: 36.5 µM
  TGI: > 100 µM
U251 CNS
  GI50: > 100 µM
  TGI: > 100 µM
NCI-H460 lung
  GI50: 49.5 µM
  TGI: > 100 µM
EKVX NSCLC
  GI50: 40.1 µM
  TGI: > 100 µM
HOP-62 NSCLC
  GI50: 89.7 µM
  TGI: > 100 µM
COLO 205 colon
  GI50: > 100 µM
  TGI: > 100 µM
SF-295 CNS
  GI50: > 100 µM
  TGI: > 100 µM
RPMI-8226 leukemia
  GI50: 90.7 µM
  TGI: > 100 µM
